Legend:
[1] = solid-state stability of the crystal forms; type: physicochemical; conditions: qualitative comparison of the forms identified
[2] = hygroscopicity of the crystal form; type: physicochemical; conditions: solid form, qualitative

| Compound | stability of the crystal form [1] | also measured |
| --- | --- | --- |
| CCc1nc2c(C)nc(C)cc2n1-c1ccc(CCNC(=O)NS(=O)(=O)c2ccc(C)cc2)cc1 [Example 2, 2-ETHYL-4,6-DI METHYL-1-(4-{2-[({[(4-METHYLPHENYL)SULFONYL]AMINO}CARBONYL)AMINO]ETHYL}PHENYL)-1H-IMIDAZO[4,5-c]PYRIDINE, reference compound] | – | stability of the crystal form ([1]; listed as N-[({2-[4-(2-Ethyl-4,6-dimethyl-1H-imidazo[4,5-c]pyridin-1-yl)phenyl]ethyl}amino): unstable |
| CCc1nc2c(C)nc(C)cc2n1-c1ccc(CCNC(=O)NS(=O)(=O)c2ccc(C)cc2)cc1 [Crystal Form D, N-[({2-[4-(2-Ethyl-4,6-dimethyl-1H-imidazo[4,5-c]pyridin-1-yl)phenyl]ethyl}amino)carbonyl]-4-methylbenzenesulfonamide] | less stable | – |
| CCc1nc2c(C)nc(C)cc2n1-c1ccc(CCNC(=O)NS(=O)(=O)c2ccc(C)cc2)cc1 [Polymorph Form A, N-[({2-[4-(2-Ethyl-4,6-dimethyl-1H-imidazo[4,5-c]pyridin-1-yl)phenyl]ethyl}amino)carbonyl]-4-methylbenzenesulfonamide] | most stable | hygroscopicity [2]: non-hygroscopic |
| CCc1nc2c(C)nc(C)cc2n1-c1ccc(CCNC(=O)NS(=O)(=O)c2ccc(C)cc2)cc1 [Polymorph Form B, N-[({2-[4-(2-Ethyl-4,6-dimethyl-1H-imidazo[4,5-c]pyridin-1-yl)phenyl]ethyl}amino)carbonyl]-4-methylbenzenesulfonamide] | stable | – |

Now from value to compound, other results behind:

| stability of the crystal form [1] | Compound | also measured |
| --- | --- | --- |
| less stable | CCc1nc2c(C)nc(C)cc2n1-c1ccc(CCNC(=O)NS(=O)(=O)c2ccc(C)cc2)cc1 [Crystal Form G, N-[({2-[4-(2-Ethyl-4,6-dimethyl-1H-imidazo[4,5-c]pyridin-1-yl)phenyl]ethyl}amino)carbonyl]-4-methylbenzenesulfonamide] | – |
| less stable | CCc1nc2c(C)nc(C)cc2n1-c1ccc(CCNC(=O)NS(=O)(=O)c2ccc(C)cc2)cc1 [Crystal Form C, N-[({2-[4-(2-Ethyl-4,6-dimethyl-1H-imidazo[4,5-c]pyridin-1-yl)phenyl]ethyl}amino)carbonyl]-4-methylbenzenesulfonamide] | stability of the crystal form ([1]; listed as C): (metastable) |
